Measurements taken from PubChem BioAssay AID328 (DTP/NCI, 2004).
“And” between values parts separate entries of the source, which are not always exact repeats. Equal entries are not always repeated. Inconclusive results and toxic doses are left out.

System: BDF1 mice, P388 leukemia ip, median survival T/C
Experiment: NCI In Vivo Anticancer Drug Screen. Data for tumor model P388 Leukemia (intraperitoneal) in B6D2F1 (BDF1) mice
Conditions: endpoint: median survival time, higher = longer survival
Summary of the method: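 Compound-treated tumour-bearing mice were compared with vehicle-treated controls. Survival was recorded, and the value is the treated-group measurement divided by the control-group measurement (T/C).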

[1] = dose: 25.0 mg/kg/injection, schedule: Q01DX009 (ip), vehicle: saline
[2] = dose: 25.0 mg/kg/injection, schedule: Q04DX003 (ip), vehicle: saline
[3] = dose: 50.0 mg/kg/injection, schedule: Q01DX009 (ip), vehicle: saline
[4] = dose: 50.0 mg/kg/injection, schedule: Q04DX003 (ip), vehicle: saline
[5] = dose: 100.0 mg/kg/injection, schedule: Q01DX009 (ip), vehicle: saline
[6] = dose: 200.0 mg/kg/injection, schedule: Q04DX003 (ip), vehicle: saline
[7] = dose: 400.0 mg/kg/injection, schedule: Q04DX003 (ip), vehicle: saline
[8] = dose: 50.0 mg/kg/injection, schedule: Q01DX009 (ip), vehicle: saline with Tween-80
[9] = dose: 25.0 mg/kg/injection, schedule: Q01DX009 (ip), vehicle: saline with Tween-80
[10] = dose: 100.0 mg/kg/injection, schedule: Q01DX009 (ip), vehicle: saline with Tween-80
[11] = dose: 200.0 mg/kg/injection, schedule: Q01DX009 (ip), vehicle: saline with Tween-80
[12] = dose: 100.0 mg/kg/injection, schedule: Q04DX003 (ip), vehicle: saline
[13] = dose: 25.0 mg/kg/injection, schedule: Q01DX009 (ip), vehicle: water
[14] = dose: 100.0 mg/kg/injection, schedule: Q01DX009 (ip), vehicle: water
[15] = dose: 400.0 mg/kg/injection, schedule: Q01DX009 (ip), vehicle: saline with Tween-80
[16] = dose: 3.12 mg/kg/injection, schedule: Q01DX009 (ip), vehicle: saline with Tween-80
[17] = dose: 6.25 mg/kg/injection, schedule: Q01DX009 (ip), vehicle: saline with Tween-80
[18] = dose: 12.5 mg/kg/injection, schedule: Q01DX009 (ip), vehicle: saline with Tween-80

COc1ccc(CN(C(C)=O)c2cc(C)c([N+](=O)[O-])cc2OC)cc1OC
T/C [1]: 103 % of control
T/C [2]: 87 % of control and 107 % of control
T/C [3]: 87 % of control
T/C [4]: 88 % of control and 107 % of control
T/C [5]: 111 % of control
T/C (dose: 150.0 mg/kg/injection, schedule: Q04DX003 (ip), vehicle: saline): 106 % of control
T/C (dose: 200.0 mg/kg/injection, schedule: Q01DX009 (ip), vehicle: saline): 108 % of control
T/C [6]: 99 % of control and 107 % of control
T/C (dose: 300.0 mg/kg/injection, schedule: Q04DX003 (ip), vehicle: saline): 114 % of control
T/C (dose: 400.0 mg/kg/injection, schedule: Q01DX009 (ip), vehicle: saline): 100 % of control
T/C [7]: 100 % of control

CCC(=O)N(C)[C@@H](C)C(=O)O[C@H]1CC(=O)N(C)c2cc(cc(OC)c2Cl)C/C(C)=C/C=C[C@@H](OC)[C@@]2(O)C[C@H](OC(=O)N2)[C@@H](C)[C@@H]2O[C@@]12C
T/C (dose: 0.2 micrograms/kg/injection, schedule: Q01DX009 (ip), vehicle: saline): 120 % of control
T/C (dose: 1.6 micrograms/kg/injection, schedule: Q01DX009 (ip), vehicle: saline): 154 % of control
T/C (dose: 3.1 micrograms/kg/injection, schedule: Q01DX009 (ip), vehicle: saline): 150 % of control
T/C (dose: 12.5 micrograms/kg/injection, schedule: Q01DX009 (ip), vehicle: saline): 104 % of control

O=C(Nc1nnc(C(F)(F)F)s1)c1c(F)cccc1F
T/C [8]: 92 % of control

COC(=O)c1c(Cl)c(Cl)c(C(=O)OC)c(Cl)c1Cl
T/C [9]: 100 % of control
T/C [8]: 100 % of control
T/C [10]: 86 % of control
T/C (dose: 100.0 mg/kg/injection, schedule: Q04DX003 (ip), vehicle: saline with Tween-80): 91 % of control
T/C (dose: 200.0 mg/kg/injection, schedule: Q04DX003 (ip), vehicle: saline with Tween-80): 108 % of control
T/C (dose: 266.0 mg/kg/injection, schedule: Q04DX003 (ip), vehicle: saline with Tween-80): 95 % of control
T/C (dose: 400.0 mg/kg/injection, schedule: Q04DX003 (ip), vehicle: saline with Tween-80): 90 % of control
T/C (dose: 600.0 mg/kg/injection, schedule: Q04DX003 (ip), vehicle: saline with Tween-80): 100 % of control

ClC(Cl)(Cl)C(Cl)(Cl)c1ccc(C(Cl)(Cl)C(Cl)(Cl)Cl)cc1
T/C (dose: 18.75 mg/kg/injection, schedule: Q01DX009 (ip), vehicle: saline with Tween-80): 100 % of control
T/C (dose: 37.5 mg/kg/injection, schedule: Q01DX009 (ip), vehicle: saline with Tween-80): 100 % of control
T/C (dose: 75.0 mg/kg/injection, schedule: Q01DX009 (ip), vehicle: saline with Tween-80): 100 % of control
T/C (dose: 100.0 mg/kg/injection, schedule: Q04DX003 (ip), vehicle: saline sonified): 100 % of control
T/C [11]: 92 % of control
T/C (dose: 400.0 mg/kg/injection, schedule: Q04DX003 (ip), vehicle: saline sonified): 95 % of control

CC(C)CN1CCOCC1
T/C [2]: 95 % of control
T/C [4]: 108 % of control
T/C [12]: 95 % of control

[O-]/C(CCl)=N\[n+]1c2c(nc3ccccc31)-c1cccc3cccc-2c13
T/C (dose: 12.5 mg/kg/injection, schedule: Q01DX001 (ip), vehicle: Klucel (hydroxypropylcellulose) (HPC)): 105 % of control
T/C (dose: 25.0 mg/kg/injection, schedule: Q01DX001 (ip), vehicle: Klucel (hydroxypropylcellulose) (HPC)): 102 % of control

CCOC(=O)Nc1cc(NC(C)CCCN(CC)CC)c2ncc(-c3ccccc3)nc2n1 (stereo not given) (tested in a mixture with another compound)
T/C [1]: 100 % of control
T/C [2]: 104 % of control
T/C [3]: 100 % of control
T/C [4]: 100 % of control
T/C [5]: 104 % of control
T/C [12]: 104 % of control

O=C1NC(=O)C(c2cccs2)(c2cccs2)N1
T/C [13]: 115 % of control
T/C [14]: 111 % of control
T/C (dose: 100.0 mg/kg/injection, schedule: Q04DX003 (ip), vehicle: water): 99 % of control
T/C (dose: 200.0 mg/kg/injection, schedule: Q04DX003 (ip), vehicle: water): 98 % of control

COc1cc2ccccc2c(-c2c(O)c(OC)cc3ccccc23)c1O
T/C [8]: 91 % of control
T/C [10]: 86 % of control
T/C [11]: 88 % of control

O=C1NN(CCO)C(=S)Nc2ccccc21
T/C (dose: 50.0 mg/kg/injection, schedule: Q01DX009 (ip), vehicle: Klucel (hydroxypropylcellulose) (HPC)): 100 % of control
T/C (dose: 100.0 mg/kg/injection, schedule: Q01DX009 (ip), vehicle: Klucel (hydroxypropylcellulose) (HPC)): 100 % of control
T/C (dose: 200.0 mg/kg/injection, schedule: Q01DX009 (ip), vehicle: Klucel (hydroxypropylcellulose) (HPC)): 90 % of control

COC(=O)C(CO)NC(=O)OCc1ccccc1 (stereo not given)
T/C (dose: 12.5 mg/kg/injection, schedule: Q01DX009 (ip), vehicle: water): 100 % of control
T/C [13]: 100 % of control
T/C (dose: 50.0 mg/kg/injection, schedule: Q01DX009 (ip), vehicle: water): 96 % of control
T/C [14]: 96 % of control
T/C (dose: 200.0 mg/kg/injection, schedule: Q01DX009 (ip), vehicle: water): 100 % of control

C[N+](C)(C)N=C1CCC2(CC1)c1ccccc1-c1ccccc12
T/C (dose: 5.15 mg/kg/injection, schedule: Q04DX003 (ip), vehicle: saline): 95 % of control
T/C (dose: 6.25 mg/kg/injection, schedule: Q01DX009 (ip), vehicle: saline): 95 % of control
T/C (dose: 10.31 mg/kg/injection, schedule: Q04DX003 (ip), vehicle: saline): 100 % of control
T/C (dose: 12.5 mg/kg/injection, schedule: Q01DX009 (ip), vehicle: saline): 91 % of control
T/C (dose: 20.62 mg/kg/injection, schedule: Q04DX003 (ip), vehicle: saline): 115 % of control
T/C [1]: 100 % of control
T/C (dose: 35.0 mg/kg/injection, schedule: Q01DX009 (ip), vehicle: saline): 113 % of control
T/C (dose: 41.25 mg/kg/injection, schedule: Q04DX003 (ip), vehicle: saline): 104 % of control
T/C (dose: 55.0 mg/kg/injection, schedule: Q01DX009 (ip), vehicle: saline): 90 % of control

Cc1cccc(NC(=O)NCCOC(=O)OCCNC(=O)Nc2cccc(C)c2C)c1C
T/C [10]: 90 % of control
T/C [11]: 90 % of control
T/C [15]: 113 % of control

CCCCCCCCC(=O)CCCCC
T/C [12]: 100 % of control
T/C [6]: 91 % of control
T/C [7]: 95 % of control

CCCCNC(C)(C)C(SSSC(C)=O)c1ccco1 (stereo not given)
T/C [16]: 88 % of control
T/C [17]: 111 % of control
T/C [18]: 102 % of control
T/C [9]: 101 % of control and 102 % of control
T/C [8]: 103 % of control

Cc1ccccc1N=P(c1ccccc1)(c1ccccc1)c1ccccc1
T/C (dose: 50.0 mg/kg/injection, schedule: Q01DX009 (ip), vehicle: gum acacia): 88 % of control
T/C (dose: 100.0 mg/kg/injection, schedule: Q01DX009 (ip), vehicle: gum acacia): 88 % of control
T/C (dose: 100.0 mg/kg/injection, schedule: Q04DX003 (ip), vehicle: gum acacia): 96 % of control
T/C (dose: 200.0 mg/kg/injection, schedule: Q04DX003 (ip), vehicle: gum acacia): 96 % of control

Cc1cc(NC(=O)c2ccc(Cl)cc2)ccc1Cl
T/C (dose: 100.0 mg/kg/injection, schedule: Q01DX001 (ip), vehicle: saline with Tween-80): 100 % of control
T/C (dose: 200.0 mg/kg/injection, schedule: Q01DX001 (ip), vehicle: saline with Tween-80): 86 % of control
T/C (dose: 400.0 mg/kg/injection, schedule: Q01DX001 (ip), vehicle: saline with Tween-80): 95 % of control

Cc1ccc2[nH]c(=S)n(-c3cccc(C(F)(F)F)c3)c(=O)c2c1
T/C [9]: 102 % of control
T/C [8]: 92 % of control and 94 % of control
T/C [10]: 102 % of control
T/C [11]: 93 % of control
T/C [15]: 102 % of control

CCOC(=O)C1Cc2c([nH]c(=O)[nH]c2=O)OC1c1cccc(Cl)c1 (stereo not given)
T/C [16]: 98 % of control
T/C [17]: 96 % of control and 102 % of control
T/C [18]: 93 % of control
T/C [9]: 99 % of control and 107 % of control

COC1(OC)C2(Cl)CC(=O)C3CC(=O)C3C1(Cl)C(Cl)=C2Cl (stereo not given)
T/C (dose: 100.0 mg/kg/injection, schedule: Q01DX001 (ip), vehicle: Klucel (hydroxypropylcellulose) (HPC)): 103 % of control
T/C (dose: 200.0 mg/kg/injection, schedule: Q01DX001 (ip), vehicle: Klucel (hydroxypropylcellulose) (HPC)): 107 % of control
T/C (dose: 400.0 mg/kg/injection, schedule: Q01DX001 (ip), vehicle: Klucel (hydroxypropylcellulose) (HPC)): 96 % of control
